For one series, the target named is human recombinant GSK-3β (Homo sapiens, UniProt P49841). The series is described as follows: GSK-3β activity, AlphaScreen, primed glycogen synthase substrate peptide. The format is biochemical. Here is the method:
Functional measurements to ascertain IC50 values:
GSK-3β activity is measured using human recombinant GSK-3β and a primed (pre-phosphorylated) substrate peptide (derived from glycogen synthase and containing the phosphorylation sites 3a, b, and c) on the basis of the AlphaScreen technology in 384-well plate format (small volume plate, white, Greiner). […] After adding […] Donor beads (20 μg/ml) and […] antibody (anti-phosphoglycogen synthase 1:2000)-coated Acceptor beads (40 μg/ml) in AlphaScreen detection buffer (20 mM Hepes, pH 7.4, 10 mM MgCl, 40 mM EDTA, 1 mM DTT, 0.1 mg/ml BSA), plates are incubated at room temperature (in the dark) overnight and then placed in a reader (Alphaquest or Fusion) to measure final fluorescence. IC50 values are calculated from the fitted curve corrected for bank values (absence of GSK-3β) and performed in triplicate.

The mark [1] stands for this setting: human recombinant GSK-3β 0.18 nM, biot. phospho-glycogen synthase peptide 34 nM, 10 μM ATP, 60 min room temperature, triplicate, read-out: IC50.

For 25 molecules, melting point and IC50 results are on record in patent publication US7727989B2, “4-benzimidazol-2-yl-pyridazine-3-one-derivatives, production and use thereof in medicaments” (Sanofi-Aventis Deutschland GmbH, priority 2004, dated 2010).

Read-outs that look alike come from different tables or passages of the source.

Sequence of human recombinant GSK-3β (P49841 whole entry): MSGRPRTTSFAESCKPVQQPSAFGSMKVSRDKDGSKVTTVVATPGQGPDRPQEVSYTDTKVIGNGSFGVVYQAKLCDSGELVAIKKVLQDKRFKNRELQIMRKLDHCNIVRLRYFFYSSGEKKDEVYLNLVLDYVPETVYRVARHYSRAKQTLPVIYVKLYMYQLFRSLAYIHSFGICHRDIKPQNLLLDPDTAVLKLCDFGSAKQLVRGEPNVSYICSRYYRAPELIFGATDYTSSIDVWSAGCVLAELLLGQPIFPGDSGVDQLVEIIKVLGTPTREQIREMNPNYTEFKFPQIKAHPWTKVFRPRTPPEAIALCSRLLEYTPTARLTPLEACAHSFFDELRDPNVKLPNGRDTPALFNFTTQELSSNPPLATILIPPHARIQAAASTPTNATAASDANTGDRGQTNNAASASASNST

Consider `O=c1[nH]nc(-c2ccncc2)cc1-c1nc2cc(Cl)ccc2[nH]1` [Example 5, 4-(6-Chloro-1H-benzimidazol-2-yl)-6-pyridin-4-yl-2H-pyridazin-3-one], for which the melting point was > 300 °C (dec.).
For the molecule `O=c1[nH]nc(-c2ccncc2)cc1-c1nc2cc(C(F)(F)F)ccc2[nH]1` [Example 6, 4-(6-Tri-fluoromethyl-1H-benzimidazol-2-yl)-6-pyridin-4-yl-2H-pyridazin-3-one], the melting point was > 300 °C (dec.). Moreover, the IC50 on human recombinant GSK-3β (setting [1]) was 16 nM.
As for `COc1ccc2nc(-c3cc(-c4ccncc4)n[nH]c3=O)[nH]c2c1` [Example 7, 4-(6-Methoxy-1H-benzimidazol-2-yl)-6-pyridin-4-yl-2H-pyridazin-3-one], the melting point was > 300 °C (dec.).
The same measure, in the same setting: next, `O=C(NCCNC1CCCCC1)c1ccc2nc(-c3cc(-c4ccncc4)n[nH]c3=O)[nH]c2c1` [Example 8, 2-(3-Oxo-6-pyridin-4-yl-2,3-dihydropyridazin-4-yl)-1H-benzimidazole-5-carboxylic acid (2-cyclohexylaminoethyl)amide]: 271 °C; `CN1CCN(CCCNC(=O)c2ccc3nc(-c4cc(-c5ccncc5)n[nH]c4=O)[nH]c3c2)CC1` [Example 9, 2-(3-Oxo-6-pyridin-4-yl-2,3-dihydropyridazin-4-yl)-1H-benzimidazole-5-carboxylic acid [3-(4-methylpiperazin-1-yl)propyl]amide]: over 300 °C.
Still for that read-out and setting: with `O=C(NCCCO)c1ccc2nc(-c3cc(-c4ccncc4)n[nH]c3=O)[nH]c2c1` [Example 10, 2-(3-Oxo-6-pyridin-4-yl-2,3-dihydropyridazin-4-yl)-1H-benzimidazole-5-carboxylic acid (3-hydroxypropyl)amide] the figure was > 300 °C (dec.).
Same read-out and setting: next, `Cc1cc(-c2nc3cc(Cl)ccc3[nH]2)c(=O)[nH]n1` [Example 11, 4-(5-Chloro-1H-benzimidazol-2-yl)-6-methyl-2H-pyridazin-3-one]: > 300 °C (dec.); `CNc1nccc(-c2cc(-c3nc4cc(Cl)ccc4[nH]3)c(=O)[nH]n2)n1` [Example 14, 4-(5-Chloro-1H-benzimidazol-2-yl)-6-(2-methylaminopyrimidin-4-yl)-2H-pyridazin-3-one]: > 300 °C (dec.).
In the case of `Cc1cccc2nc(-c3cc(-c4ccncc4)n[nH]c3=O)[nH]c12` [Example 17, 4-(7-Methyl-1H-benzimidazol-2-yl)-6-pyridin-4-yl-2H-pyridazin-3-one], the melting point was > 350 °C (dec.).
Same read-out and setting: next, `Cc1cc2nc(-c3cc(-c4ccncc4)n[nH]c3=O)[nH]c2cc1C` [Example 18, 4-(5,6-Dimethyl-1H-benzimidazol-2-yl)-6-pyridin-4-yl-2H-pyridazin-3-one]: > 350 °C (dec.).
Consider `CN1CCN(c2ccc3[nH]c(-c4cc(-c5ccncc5)n[nH]c4=O)nc3c2)CC1` [Example 19, 4-[5-(4-Methylpiperazin-1-yl)-1H-benzimidazol-2-yl]-6-pyridin-4-yl-2H-pyridazin-3-one], for which the melting point is > 350 °C (dec.).
Same read-out and setting: with `O=c1[nH]nc(-c2ccncc2)cc1-c1nc2cc(F)ccc2[nH]1` [Example 20, 4-(5-Fluoro-1H-benzimidazol-2-yl)-6-pyridin-4-yl-2H-pyridazin-3-one] the figure was > 350 °C (dec.).
Turning to `N#Cc1ccc2[nH]c(-c3cc(-c4ccncc4)n[nH]c3=O)nc2c1` [Example 21, 4-(5-Cyano-1H-benzimidazol-2-yl)-6-pyridin-4-yl-2H-pyridazin-3-one], the melting point was > 350 °C (dec.). Further, the IC50 at human recombinant GSK-3β (setting [1]) came out at 57 nM.
In the case of `O=c1[nH]nc(-c2ccncc2)cc1-c1nc2ccc(Br)cc2[nH]1` [Example 22, 4-(5-Bromo-1H-benzimidazol-2-yl)-6-pyridin-4-yl-2H-pyridazin-3-one], the melting point was > 350 °C (dec.).
Regarding `Cc1cc(-c2cc(-c3nc4ccc(C(F)(F)F)cc4[nH]3)c(=O)[nH]n2)cc(C)c1O` [Example 25, 6-(4-Hydroxy-3,5-dimethylphenyl)-4-(6-tri-fluoromethyl-1H-benzimidazol-2-yl)-2H-pyridazin-3-one], the IC50 on human recombinant GSK-3β (setting [1]) is 56 nM.
As for `CCCCNc1nccc(-c2cc(-c3nc4ccc(Cl)cc4[nH]3)c(=O)[nH]n2)n1` [Example 26, 6-(2-Butylaminopyrimidin-4-yl)-4-(6-chloro-1H-benzimidazol-2-yl)-2H-pyridazin-3-one], the melting point stood at 305 °C.
The same measure, in the same setting: with `CCCCNc1nccc(-c2cc(-c3nc4ccc(C(F)(F)F)cc4[nH]3)c(=O)[nH]n2)n1` [Example 27, 6-(2-Butylaminopyrimidin-4-yl)-4-(6-tri-fluoromethyl-1H-benzimidazol-2-yl)-2H-pyridazin-3-one] the figure was 288 °C.
Same read-out and setting: with `O=c1[nH]nc(-c2ccncc2)cc1-c1nc2ccccc2[nH]1` [Example 28, 4-(1H-Benzimidazol-2-yl)-6-pyridin-4-yl-2H-pyridazin-3-one] the figure was > 350 °C (dec.).
For the molecule `O=c1[nH]nc(-c2ccncc2)cc1-c1nc2ccncc2[nH]1` [Example 38, 4-(3H-imidazol[4,5-c]pyridin-2-yl)-6-pyridin-4-yl-2H-pyridazin-3-one], on human recombinant GSK-3β (setting [1]), the IC50 was 32 nM.
As to `CN1CCN(Cc2ccc3nc(-c4cc(-c5ccncc5)n[nH]c4=O)[nH]c3c2)CC1` [Example 42, 4-[6-(4-Methylpiperazin-1-ylmethyl)-1H-benzimidazol-2-yl]-6-pyridin-4-yl-2H-pyridazin-3-one], the IC50 on human recombinant GSK-3β (setting [1]) stood at 7 nM.
The same measure, in the same setting: next, `O=c1[nH]nc(-c2ccsc2)cc1-c1nc2ccccc2[nH]1` [Example 46, 4-(1H-Benzimidazol-2-yl)-6-thiophen-3-yl-2H-pyridazin-3-one]: 28 nM.
For the molecule `Cn1cc(-c2cc(-c3nc4ccccc4[nH]3)c(=O)[nH]n2)ccc1=O` [Example 50, 4-(1H-Benzimidazol-2-yl)-6-(1-methyl-6-oxo-1,6-dihydropyridin-3-yl)-2H-pyridazin-3-one], the IC50 on human recombinant GSK-3β came to 157 nM.
Turning to `CN1CCN(Cc2ccc3nc(-c4cc(-c5ccccc5)n[nH]c4=O)[nH]c3c2)CC1` [Example 53, 4-[6-(4-Methylpiperazin-1-ylmethyl)-1H-benzimidazol-2-yl]-6-phenyl-2H-pyridazin-3-one], the IC50 at human recombinant GSK-3β (setting [1]) was determined as 42 nM.
As for `O=c1[nH]nc(-c2ccnc(NC3CC3)n2)cc1-c1nc2ccccc2[nH]1` [Example 58, 4-(1H-Benzimidazol-2-yl)-6-(2-cyclopropylaminopyrimidin-4-yl)-2H-pyridazin-3-one], the IC50 at human recombinant GSK-3β (setting [1]) worked out at 50 nM.
On to `O=c1[nH]nc(-n2ccnc2)cc1-c1nc2ccccc2[nH]1` [Example 68, 4-(1H-Benzimidazol-2-yl)-6-imidazol-1-yl-2H-pyridazin-3-one], for which, at human recombinant GSK-3β (setting [1]), the IC50 was 63 nM.
